Laboratory results: the supplement of paper PMC10627819

Columns and labels:
[1] = test system: B. subtilis 168; assay: fitness (endpoint OD595 vs no drug) (fraction); higher = more growth
Summary of the method: (§1)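 Bacterial fitness was scored as optical density at the stationary-phase transition relative to the robust mean of no-drug control wells. Scores are capped at 1. The growth data were OD595 readings every 30 min for 14 h at 37 °C, background-subtracted against the first reading, from 384-well plates inoculated at OD595 0.01 in TSB, LB Lennox or CY.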

[2] = test system: S. aureus DSM 20231; assay: as above
Summary of the method: as §1

[3] = test system: S. pneumoniae D39V; assay: as above
Summary of the method: as §1

[4] = test system: B. subtilis 168; assay: Bliss interaction score (quartile over a dose matrix) (fitness difference); higher = more antagonism (negative = synergy)
Summary of the method: (§2)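 Fitness was defined as normalised growth: OD595 at the start of stationary phase divided by the plate's robust no-drug mean and capped at 1. Single-drug fitness was inferred from combination measurements. The Bliss score is observed fitness minus the product of the single-drug values, summarised by quartiles across technical, biological and donor/recipient replicates.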

[5] = test system: S. aureus DSM 20231; assay: as above
Summary of the method: as §2

[6] = test system: S. aureus Newman; assay: as above
Summary of the method: as §2

[7] = test system: S. pneumoniae D39V; assay: as above
Summary of the method: as §2
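For Bliss interaction score (quartile over a dose matrix) in this document: first quartile when negative (synergy) and third quartile when positive (antagonism).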
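For fitness (endpoint OD595 vs no drug) in this document: OD595 on entry to stationary phase over no-drug wells; at most 1.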

CCC[C@@H]1C[C@@H](C(=O)N[C@@H]([C@H]2O[C@H](SC)[C@H](O)[C@@H](O)[C@H]2O)[C@@H](C)O)N(C)C1 [Lincomycin] + Cc1ncc([N+](=O)[O-])n1CCO [Metronidazole]
Details | fitness
[1], first compound 0.1 µg/mL, partner 0.625 µg/mL | 0.971
[1], first compound 0.1 µg/mL, partner 1.25 µg/mL | 0.93
[1], first compound 0.1 µg/mL, partner 2.5 µg/mL | 0.887
[1], first compound 0.2 µg/mL, partner 0.625 µg/mL | 0.928
[1], first compound 0.2 µg/mL, partner 1.25 µg/mL | 0.9
[1], first compound 0.2 µg/mL, partner 2.5 µg/mL | 0.876
[1], first compound 0.4 µg/mL, partner 0.625 µg/mL | 0.991
[1], first compound 0.4 µg/mL, partner 1.25 µg/mL | 0.894
[1], first compound 0.4 µg/mL, partner 2.5 µg/mL | 0.933
[2], first compound 0.1 µg/mL, partner 0.625 µg/mL | 0.884
[2], first compound 0.1 µg/mL, partner 1.25 µg/mL | 0.953
[2], first compound 0.1 µg/mL, partner 2.5 µg/mL | ≥ 1
[2], first compound 0.2 µg/mL, partner 0.625 µg/mL | 0.812
[2], first compound 0.2 µg/mL, partner 1.25 µg/mL | 0.853
[2], first compound 0.2 µg/mL, partner 2.5 µg/mL | 0.866
[3], first compound 0.2 µg/mL, partner 1.073 µg/mL | 0.752
[3], first compound 0.2 µg/mL, partner 2.145 µg/mL | 0.681
[3], first compound 0.2 µg/mL, partner 4.29 µg/mL | 0.659
[3], first compound 0.215 µg/mL, partner 1.25 µg/mL | 0.874
[3], first compound 0.215 µg/mL, partner 2.5 µg/mL | 0.87
[3], first compound 0.215 µg/mL, partner 5 µg/mL | 0.844
[3], first compound 0.4 µg/mL, partner 1.073 µg/mL | 0.68
[3], first compound 0.4 µg/mL, partner 2.145 µg/mL | 0.654
[3], first compound 0.4 µg/mL, partner 4.29 µg/mL | 0.647
[3], first compound 0.43 µg/mL, partner 1.25 µg/mL | 0.765
[3], first compound 0.43 µg/mL, partner 2.5 µg/mL | 0.761
[3], first compound 0.43 µg/mL, partner 5 µg/mL | 0.738
[3], first compound 0.8 µg/mL, partner 1.073 µg/mL | 0.502
[3], first compound 0.8 µg/mL, partner 2.145 µg/mL | 0.435
[3], first compound 0.8 µg/mL, partner 4.29 µg/mL | 0.428
[3], first compound 0.86 µg/mL, partner 1.25 µg/mL | 0.579
[3], first compound 0.86 µg/mL, partner 2.5 µg/mL | 0.578
[3], first compound 0.86 µg/mL, partner 5 µg/mL | 0.557

Details | Bliss interaction score
[4] | -0.0532
[5] | 0.0836
[6] | 0.073
[7] | 0.138

CCC[C@@H]1C[C@@H](C(=O)N[C@@H]([C@H]2O[C@H](SC)[C@H](O)[C@@H](O)[C@H]2O)[C@@H](C)O)N(C)C1 [Lincomycin] + Cc1onc(-c2ccccc2)c1C(=O)N[C@@H]1C(=O)N2[C@@H]1SC(C)(C)[C@@H]2C(=O)O [Oxacillin]
fitness
Details | first compound 0.1 µg/mL | first compound 0.2 µg/mL | first compound 0.215 µg/mL | first compound 0.4 µg/mL | first compound 0.43 µg/mL | first compound 0.8 µg/mL | first compound 0.86 µg/mL
[1], partner 0.002 µg/mL | 0.911 | 0.939 | – | 0.913 | – | – | –
[1], partner 0.004 µg/mL | 0.881 | 0.923 | – | 0.926 | – | – | –
[1], partner 0.008 µg/mL | 0.891 | 0.877 | – | 0.83 | – | – | –
[2], partner 0.0156 µg/mL | 0.785 | 0.78 | – | 0.291 | – | – | –
[2], partner 0.0312 µg/mL | 0.655 | 0.682 | – | 0.259 | – | – | –
[2], partner 0.0625 µg/mL | 0.491 | 0.515 | – | 0.173 | – | – | –
[3], partner 0.01 µg/mL | – | 0.765 | 0.927 | 0.63 | 0.762 | – | 0.507
[3], partner 0.02 µg/mL | – | 0.764 | 0.882 | 0.588 | 0.778 | – | 0.483
[3], partner 0.04 µg/mL | – | 0.509 | 0.787 | 0.403 | 0.716 | 0.139 | 0.404

fitness, [1], one replicate
Details | partner 0.0078 µg/mL | partner 0.0155 µg/mL | partner 0.031 µg/mL | partner 0.075 µg/mL | partner 0.15 µg/mL | partner 0.3 µg/mL
first compound 0.1 µg/mL | ≥ 1 | ≥ 1 | ≥ 1 | – | – | –
first compound 0.2 µg/mL | ≥ 1 | ≥ 1 | 0.889 | – | – | –
first compound 0.4 µg/mL | ≥ 1 | ≥ 1 | 0.934 | 0.183 | 0.0398 | 0.0489
first compound 0.8 µg/mL | – | – | – | 0.403 | 0.0361 | 0.0601
first compound 1.6 µg/mL | – | – | – | 0.261 | 0.0594 | 0.0563

Details | Bliss interaction score
[4] | -0.0676
[5] | 0.119
[6] | 0.137
[7] | 0.189
